The subject of data set [1] is leukemic cobblestoning on pretreated OP9 stromal cells. As to the kind of experiment: Stromal pretreatment screen on OP9 stroma. It is filed as cell-based, murine. The note with it: compound on OP9 stroma for 3 days, washed before LSC plating. How it is done:
OP9 cells were plated as in the primary screen. 24 hours later compounds were added to the stromal cultures and the plates were incubated for three days. […] As before, the plates were imaged after 6 days of coculture, and the level of cobblestoning was quantified. Any inhibition of cobblestoning observed under these modified assay conditions would presumably be due to the activity of the compound on the niche, and would allow the analysis of cell non-cell-autonomous mechanisms of leukemia growth inhibition.

For a further data set, the system named is CD45.1+ HSPCs. The arrangement: species or system mice. The note with it: mouse, in vivo. How it is done:
Heterotypic cocultures containing dsRed+ LSCs, CD45.1+ HSPCs, and GFP+ MSCs were exposed to compounds for 48 hours, then transplanted en masse post trypsinization with untreated wild-type helper splenocytes (CD45.1+CD45.2+) into lethally irradiated, wildtype recipient animals (CD45.2+). Latency of leukemia onset was compared for mice receiving cocultures treated with compound compared to DMSO control treated cocultures. The engraftment of the normal HSPCs treated and injected along with the leukemia cells was quantified by FACs analysis of the bone marrow of mice alive at the 16 week endpoint across treatments.
As in vivo readouts may better reflect hematopoietic stem cell function compared to in vitro readouts (Purton, L. E., and Scadden, D. T. (2007). Cell Stem Cell 1, 263-270.; Bock, T. A. (1997). Stem Cells 15 Suppl 1, 185-195.), our results were confirmed using murine transplantation studies. […] Compounds that increase disease latency relative to DMSO control are considered active. […] Bone marrow repopulating ability is a functional measure of normal HSPCs, assessed by quantifying long-term engraftment and differentiation patterns in recipient mice (Bock, T. A. (1997). Stem Cells 15 Suppl 1, 185-195.; Nguyen, L. V., Vanner, R., Dirks, P., and Eaves, C. J. (2012). Nat Rev Cancer 12, 133-143.). […]

The test system of a further data set is OP9 stromal monolayers. As to the kind of experiment: Stromal viability in pulse treatment experiment (CellTiter-Glo). It is filed as cell-based, murine. The note with it: compared to DMSO control. How it is done:
OP9 or MSCs were plated in white, 384 well plates (3570, Corning) and 24 hours later compounds were added in 8-point dose as described. Three days later the plates were put out to cool to room temperature, the cultures were aspirated, and 50 μl of CellTiterGlo reagent (G7570, Promega) diluted 1:3 in PBS was added to each well. The plates were covered and placed on an orbital shaker for 20 minutes then analyzed using either an LJL Analyst (LJL) or Envision (Perkin Elmer).
13,500 GFP+ OP9 cells were plated onto gelatin coated, 96 well black, clear bottom plates (3904, Corning). 24 hours later, 2,000 sorted leukemia cells were plated onto the monolayer. Compounds (5 μM) were added either 1 (early pulse) or 4 (late pulse) days later at the same 5 μM working concentration of main coculture screen. In both cases, compounds were removed after 24 hours of treatment, the wells were washed, and fresh media without compound was added. The plates were imaged and analyzed 6 days after leukemia cell plating. The viability of the stroma was assessed using stromal monolayers grown alone and treated in parallel, with the same readout described in the stromal toxicity screen above.

Here are results for two compounds from US20130338092A1, “COMPOUNDS AND METHODS FOR TARGETING LEUKEMIC STEM CELLS” (The Broad Institute, Inc., priority 2011, published 2013).

Each structure is given as a SMILES string. Entries after “also recorded” stand apart in the source; their conditions may differ.

Take `CC1(C)C(C(=O)Nc2ccc(S(=O)(=O)c3ccc(NC(=O)C4C(C)(C)C4(C)C)cc3)cc2)C1(C)C` [BRD7116]: in data set [1], the “leukemic cobblestoning after stromal pretreatment” value is on record as “decreased leukemic cobblestoning; also recorded: partially recapitulated the leukemia cobblestone inhibition”.

For `CCC(C)C(=O)OC1CC(C)C=C2C=CC(C)C(CCC(O)CC(O)CC(=O)O)C21` (stereo not drawn) [Lovastatic acid], the “differentiation patterns of engrafted HSPCs” value with CD45.1+ HSPCs is listed as “normal differentiation patterns”. Moreover, the “stromal viability after 24 hour pulse (CellTiter-Glo)” value with OP9 stromal monolayers was “no effect on stromal viability”.
